# Columns and labels:
# [1] = molecular target: T1, Peroxisome proliferator-activated receptor gamma (Homo sapiens, UniProt P37231); assay: Displacement of fluormone-PPARgamma green from GST-tagged PPARgamma-LBD (unknown origin) by fluorescence polarization assay
# T1 sequence (P37231 whole entry): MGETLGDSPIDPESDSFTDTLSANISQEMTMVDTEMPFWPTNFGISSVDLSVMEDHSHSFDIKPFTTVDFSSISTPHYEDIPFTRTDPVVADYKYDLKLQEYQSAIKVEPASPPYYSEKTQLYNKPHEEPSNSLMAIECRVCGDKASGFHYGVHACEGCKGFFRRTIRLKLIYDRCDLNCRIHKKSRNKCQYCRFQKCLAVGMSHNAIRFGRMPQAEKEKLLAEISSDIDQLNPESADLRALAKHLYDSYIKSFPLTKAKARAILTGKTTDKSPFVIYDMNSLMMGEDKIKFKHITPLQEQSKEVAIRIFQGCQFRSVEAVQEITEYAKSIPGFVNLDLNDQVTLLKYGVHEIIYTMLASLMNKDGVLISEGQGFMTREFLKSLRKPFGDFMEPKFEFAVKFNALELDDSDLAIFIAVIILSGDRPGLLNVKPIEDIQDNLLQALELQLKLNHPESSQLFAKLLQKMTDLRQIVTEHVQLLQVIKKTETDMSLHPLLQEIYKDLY
# Rattus norvegicus = assay: Antihyperglycemic activity in streptozotocin-induced diabetic Swiss albino rat assessed as decrease in blood glucose level at 20 mg/kg, po measured up to 3 hrs post dose relative to control; format: functional; set-up: scale not given: the % may be the effect or the level left
# [2] = Agonist activity at SUR in Wistar rat pancreatic islets assessed as increase in insulin secretion at 5 to 20 uM incubated for 1 hr followed by glucose addition for 30 mins by quantitative sandwich enzyme immunoassay
SMILES,IC50 ([1]; read-out: IC50),Activity (Rattus norvegicus),EC50 [2],IC50 [1]
Cc1nc2ccccc2n(CC(=O)Nc2ccc(S(=O)(=O)NC(=O)Nc3ccccc3)cc2)c1=O,4 µM,–,–,–
Cc1nc2ccccc2n(CC(=O)Nc2ccc(S(=O)(=O)NC(=O)NC3CCCCC3)cc2)c1=O,4 µM,–,–,–
Cc1nc2ccccc2n(CC(=O)Nc2ccc(S(=O)(=O)NC(=S)NC3CCCCC3)cc2)c1=O,4 µM,–,–,–
CCCCNC(=S)NS(=O)(=O)c1ccc(NC(=O)Cn2c(=O)c(C)nc3ccccc32)cc1,4 µM,–,–,–
CCCCNC(=O)NS(=O)(=O)c1ccc(NC(=O)Cn2c(=O)c(C)nc3ccccc32)cc1,4 µM,–,–,–
Cc1nc2ccccc2n(CC(=O)Nc2ccc(S(=O)(=O)NC(=S)Nc3ccccc3)cc2)c1=O,4 µM,–,–,–
Cc1nc2ccccc2c(=O)n1CC(=O)Nc1ccc(S(=O)(=O)NC(=O)Nc2ccccc2)cc1,–,19.66%,–,–
CCc1nc2ccccc2c(=O)n1CC(=O)Nc1ccc(S(=O)(=O)NC(=O)Nc2ccccc2)cc1,–,21.55%,–,–
COc1ccc(-n2c(SCC(=O)Nc3ccc(S(=O)(=O)NC(=O)NC4CCCCC4)cc3)nc3ccccc3c2=O)cc1,0.35 µM,46.42%,0.97 µM,–
CCCCNC(=O)NS(=O)(=O)c1ccc(NC(=O)CSc2nc3ccccc3c(=O)n2-c2ccc(OC)cc2)cc1,0.369 µM,41.23%,1.01 µM,–
Cc1ccc(-n2c(SCC(=O)Nc3ccc(S(=O)(=O)NC(=O)Nc4ccccc4)cc3)nc3ccccc3c2=O)cc1,0.371 µM,33.42%,3.09 µM,–
CCCCNC(=O)NS(=O)(=O)c1ccc(NC(=O)Cn2c(CC)nc3ccccc3c2=O)cc1,0.408 µM,38.44%,2.51 µM,–
Cc1ccc(-n2c(SCC(=O)Nc3ccc(S(=O)(=O)NC(=O)NC4CCCCC4)cc3)nc3ccccc3c2=O)cc1,0.402 µM,40.43%,1.31 µM,–
CCCCNC(=O)NS(=O)(=O)c1ccc(NC(=O)Cn2c(C)nc3ccc(Br)cc3c2=O)cc1,–,28.25%,–,–
CCc1nc2ccccc2c(=O)n1CC(=O)Nc1ccc(S(=O)(=O)NC(=O)NC2CCCCC2)cc1,0.59 µM,34.25%,1.15 µM,–
CCCCNC(=O)NS(=O)(=O)c1ccc(NC(=O)Cn2c(C)nc3ccccc3c2=O)cc1,0.98 µM,29.22%,2.91 µM,–
COc1ccc(-n2c(SCC(=O)Nc3ccc(S(=O)(=O)NC(=O)Nc4ccccc4)cc3)nc3ccccc3c2=O)cc1,–,24.58%,–,–
CCCCNC(=O)NS(=O)(=O)c1ccc(NC(=O)CSc2nc3ccccc3c(=O)n2-c2ccc(C)cc2)cc1,0.434 µM,37.76%,1.53 µM,–
Cc1nc2ccccc2c(=O)n1CC(=O)Nc1ccc(S(=O)(=O)NC(=O)NC2CCCCC2)cc1,0.464 µM,38.64%,2.69 µM,–

SMILES,IC50 ([1]; read-out: IC50),Activity (Rattus norvegicus),EC50 [2],IC50 [1]
Cc1nc2ccc(Br)cc2c(=O)n1CC(=O)Nc1ccc(S(=O)(=O)NC(=O)Nc2ccccc2)cc1,–,21.33%,–,–
Cc1nc2ccc(Br)cc2c(=O)n1CC(=O)Nc1ccc(S(=O)(=O)NC(=O)NC2CCCCC2)cc1,0.353 µM,42.5%,1.68 µM,–
Cc1ccc(NC(=S)NS(=O)(=O)c2ccc(CCNS(=O)(=O)c3ccc(C)cc3)cc2)cc1,–,–,–,Not Active
Cc1ccc(NC(=S)NS(=O)(=O)c2ccc(CCNS(=O)(=O)c3ccccc3)cc2)cc1,50 µM,–,–,–
COc1ccc(NC(=S)NS(=O)(=O)c2ccc(CCNS(=O)(=O)c3ccccc3)cc2)cc1,1000 µM,–,–,–
O=S(=O)(NCCc1ccc(S(=O)(=O)NC(=S)Nc2ccc(Cl)cc2)cc1)c1ccc(Cl)cc1,33.3 µM,–,–,–
COc1ccc(NC(=S)NS(=O)(=O)c2ccc(CCNS(=O)(=O)c3ccc(Cl)cc3)cc2)cc1,33.3 µM,–,–,–
O=C(NC1CCCCC1)NS(=O)(=O)c1ccc(CCNS(=O)(=O)c2ccccc2)cc1,12.5 µM,–,–,–
CC1CCC(NC(=O)NS(=O)(=O)c2ccc(CCNS(=O)(=O)c3ccc(Br)cc3)cc2)CC1 (configuration not stated),1.6 µM,–,–,–
CC1CCC(NC(=O)NS(=O)(=O)c2ccc(CCNS(=O)(=O)c3ccccc3)cc2)CC1 (configuration not stated),3.4 µM,–,–,–
O=C(NC1CCCCC1)NS(=O)(=O)c1ccc(CCNS(=O)(=O)c2ccc(Cl)cc2)cc1,3.1 µM,–,–,–
O=C(NC1CCCCC1)NS(=O)(=O)c1ccc(CCNS(=O)(=O)c2ccc(Br)cc2)cc1,2.39 µM,–,–,–
CC(=O)Nc1ccc(S(=O)(=O)NCCc2ccc(S(=O)(=O)NC(=O)NC3CCC(C)CC3)cc2)cc1C (configuration not stated),2.4 µM,–,–,–
COc1ccc(NC(=S)NS(=O)(=O)c2ccc(CCNS(=O)(=O)c3ccc(C)cc3)cc2)cc1,–,–,–,Not Active
Cc1ccc(S(=O)(=O)NCCc2ccc(S(=O)(=O)NC(=S)Nc3ccc(Cl)cc3)cc2)cc1,–,–,–,Not Active
CC(=O)Nc1ccc(S(=O)(=O)NCCc2ccc(S(=O)(=O)NC(=O)NC3CCC(C)CC3)cc2)cc1 (configuration not stated),7.14 µM,–,–,–
O=S(=O)(NCCc1ccc(S(=O)(=O)NC(=S)Nc2ccc(Cl)cc2)cc1)c1ccccc1,33.3 µM,–,–,–
CCC1=C(C)CN(C(=O)NCCc2ccc(S(=O)(=O)NC(=O)N[C@H]3CC[C@H](C)CC3)cc2)C1=O [GLIMEPIRIDE],–,–,0.79 µM,–
